# Laboratory results published in patent publication US8895744B2, “Alfa-carboline inhibitors of NPM-ALK, RET, and Bcr-Abl” (Universita' Degli Studi di Milano-Bicocca, priority 2008, dated 2014).
# Tests used:
# Recombinant ALK kinase = target: T1, Recombinant ALK kinase (Homo sapiens, UniProt Q9UM73); assay: ALK kinase inhibitory activity, ELISA-based in vitro kinase assay; assay type: biochemical; conditions: purified rALK, 0.3 mM ATP, read-out: ALK IC50
# T1 construct: made in house; host or cells: Sf9 insect cells (baculovirus)
# Experimental: 36. Alk Kinase Inhibitory Activity
# (§1) Method: ELISA-Based In Vitro Kinase Assay
# (§2) Recombinant ALK kinase was expressed in Sf9 insect cells using the pBlueBacHis2C baculovirus vector system and purified using an anion exchange Fast Flow Q-sepharose column (Amersham-Pharmacia Biotech) followed by HiTrap™-nickel affinity column (Amersham-Pharmacia Biotech). Purified ALK protein was used to screen inhibitors in the ELISA-based kinase assay. A Nunc Immuno 96 well plate was incubated overnight at 37° C. with coating solution (125 μL/well) containing ALK peptide substrate ([…]) (SEQ ID NO: 1) at various concentrations in PBS. Wells were then washed with 200 μL of wash buffer (PBS-Tween 0.05%) and left to dry for at least 2 h at 37° C. The kinase reaction was performed in the presence of 50 mM Tris pH 7.5, 5 mM MnCl2, 5 mM MgCl2, 0.3 mM ATP and purified rALK in a total volume of 100 μL/well at 30° C. for 15 min. For inhibitor testing the reaction mix was preincubated with the inhibitor or solvent control for 10 min at room temperature before transferring to the ELISA plate. After the reaction wells were washed 5 times with 200 μL of wash buffer. Phosphorylated peptide was detected using 100 μL/well of a mouse monoclonal anti-phosphotyrosine antibody (clone 4G10 Upstate Biotech Ltd) diluted 1:2000 in PBS+4% BSA. After 30 min incubation at room temperature the antibody was removed and wells were washed as described above. 100 μL of a secondary antibody (anti-mouse IgG, Horseradish Peroxidase linked whole antibody, Amersham Pharmacia Biotech) diluted 1:1000 in PBS+4% BSA was added to each well and the plate was incubated again for 30 min at room temperature before washing as above. The plate was developed using 100 μL/well TMB Substrate Solution (Endogen) and the reaction was stopped by adding an equiv.ual volume of H2SO4 0.36 M. Finally, the absorbance was read at 450 nm using an Ultrospec® 300 spectrophotometer (Amersham-Pharmacia Biotech). The concentration of the test solution showing 50% inhibition as compared with the control was expressed as IC50 (μM).
# [1] = target: T2, Recombinant Abl T315I protein (Homo sapiens, UniProt P00519, T315I); assay: Abl T315I mutant kinase inhibitory activity, ELISA-based in vitro kinase assay; assay type: biochemical; conditions: purified Abl T315I, 0.3 mM ATP
# T2 construct: made in house; host or cells: Sf9 cells (baculovirus)
# Experimental: as §2
# 37. Abl T315I Mutant Kinase Inhibitory Activity
# as §1
# (§3) Recombinant Abl T315I protein was expressed in Sf9 cells using the pBlueBacHis2C baculovirus expression vector. Abl T315I was purified using an anion exchange Fast Flow Q-sepharose column (Amersham-Pharmacia Biotech) followed by HiTrap™-nickel affinity column (Amersham-Pharmacia Biotech). Purified Abl T315I was used in the ELISA-based kinase assay to screen inhibitors as described above. The kinase reaction was performed in the presence of 50 mM Tris pH 7.5, 1 mM MnCl2, 5 mM MgCl2, 0.3 mM ATP, peptide substrate ([…]) (SEQ ID NO: 1) and purified Abl T315I. The concentration of the test solution showing 50% inhibition as compared with the control was expressed as IC50 (μM).
# Recombinant Ret protein = target: T3, Recombinant Ret protein (Homo sapiens, UniProt P07949); assay: RET kinase inhibitory activity, ELISA-based in vitro kinase assay; assay type: biochemical; conditions: purified Ret, 0.3 mM ATP
# T3 construct: made in house; host or cells: Sf9 cells (baculovirus)
# Experimental: as §2
# 38. RET Kinase Inhibitory Activity
# as §1
# as §3, with “Ret” for “Abl T315I”, “Ret.” for “Abl T315I.”
# [2] = tested on: parent untransformed BaF3 cells; assay: Tritiated thymidine uptake cell proliferation assay, parental BaF3 (control); assay type: cell-based; conditions: Mus musculus, 3[H]-thymidine uptake, 72 h, medium with IL-3, read-out: BaF parental IC50
# Experimental: (§4) Method: Tritiated Thymidine Uptake Cell Proliferation Assay
# (§5) The following procedure was used with parent untransformed BaF3 cells, BaF3 cells transformed with the oncogenic fusion protein NPM/ALK, NPM/ALK positive SUDHL-1 cells, ALK-negative U937 cells, NPM/ALK positive KARPAS-299 cells. The parent untransformed BaF3 cells and Alk-negative U937 cells are used as controls. Cells were seeded in U-bottomed 96-well plates at 10 000 cells/well in a volume of 100 μL in supplemented medium. In the case of the parent untransformed BaF3 cells, the medium was supplemented with IL-3. Serial dilutions of inhibitors were added to the appropriate wells and volumes adjusted to 200 μL. Controls were treated with the equivalent volume of vehicle, DMSO, alone. Plates were incubated at 37° C. for 72 h. ^3[H]-thymidine (1 μCi/well) was added for the last 16 h of incubation. Cells were harvested on to paper filters and ^3[H]-thymidine incorporation was measured using a β scintillation counter (1430 MicroBeta, Wallac, Turku, Finland). The 50% inhibitory concentration (IC50) was defined as the concentration of inhibitor, expressed in micromolar, that gave a 50% decrease in ^3[H]-thymidine uptake compared with controls.
# as §5, with “protein bcr-abl, Abl-negative” for “protein NPM/ALK, NPM/ALK positive SUDHL-1 cells, ALK-negative”, “cells, or Bcr-abl” for “cells, NPM/ALK”, “positive LAMA-84” for “positive KARPAS-299”, “and Abl-negative” for “and Alk-negative”, “in ^3H-thymidine” for “in ^3[H]-thymidine”
# as §5, with “RET-PTC2, or RET-negative 11937” for “NPM/ALK, NPM/ALK positive SUDHL-1 cells, ALK-negative U937 cells, NPM/ALK positive KARPAS-299”, “RET-negative” for “Alk-negative”
# [3] = tested on: NPM/ALK positive SUDHL-1 cells; assay: Tritiated thymidine uptake cell proliferation assay, SUDHL-1; assay type: cell-based; conditions: 3[H]-thymidine uptake, 72 h
# Experimental: (§6) Inhibition of the proliferation of NPM/ALK positive cells
# as §4, §5
# [4] = target: T4, BaF3 cells transformed with the oncogenic fusion protein NPM/ALK (Homo sapiens, UniProt Q9UM73); assay: Tritiated thymidine uptake cell proliferation assay, BaF3 NPM/ALK; assay type: cell-based; conditions: 3[H]-thymidine uptake, 72 h; read-out: BaF NPM/ALK IC50
# T4 construct: fused on or other part: P06748 (Nucleophosmin)
# Experimental: as §6, §4, §5
# T1 sequence (Q9UM73 19-1620): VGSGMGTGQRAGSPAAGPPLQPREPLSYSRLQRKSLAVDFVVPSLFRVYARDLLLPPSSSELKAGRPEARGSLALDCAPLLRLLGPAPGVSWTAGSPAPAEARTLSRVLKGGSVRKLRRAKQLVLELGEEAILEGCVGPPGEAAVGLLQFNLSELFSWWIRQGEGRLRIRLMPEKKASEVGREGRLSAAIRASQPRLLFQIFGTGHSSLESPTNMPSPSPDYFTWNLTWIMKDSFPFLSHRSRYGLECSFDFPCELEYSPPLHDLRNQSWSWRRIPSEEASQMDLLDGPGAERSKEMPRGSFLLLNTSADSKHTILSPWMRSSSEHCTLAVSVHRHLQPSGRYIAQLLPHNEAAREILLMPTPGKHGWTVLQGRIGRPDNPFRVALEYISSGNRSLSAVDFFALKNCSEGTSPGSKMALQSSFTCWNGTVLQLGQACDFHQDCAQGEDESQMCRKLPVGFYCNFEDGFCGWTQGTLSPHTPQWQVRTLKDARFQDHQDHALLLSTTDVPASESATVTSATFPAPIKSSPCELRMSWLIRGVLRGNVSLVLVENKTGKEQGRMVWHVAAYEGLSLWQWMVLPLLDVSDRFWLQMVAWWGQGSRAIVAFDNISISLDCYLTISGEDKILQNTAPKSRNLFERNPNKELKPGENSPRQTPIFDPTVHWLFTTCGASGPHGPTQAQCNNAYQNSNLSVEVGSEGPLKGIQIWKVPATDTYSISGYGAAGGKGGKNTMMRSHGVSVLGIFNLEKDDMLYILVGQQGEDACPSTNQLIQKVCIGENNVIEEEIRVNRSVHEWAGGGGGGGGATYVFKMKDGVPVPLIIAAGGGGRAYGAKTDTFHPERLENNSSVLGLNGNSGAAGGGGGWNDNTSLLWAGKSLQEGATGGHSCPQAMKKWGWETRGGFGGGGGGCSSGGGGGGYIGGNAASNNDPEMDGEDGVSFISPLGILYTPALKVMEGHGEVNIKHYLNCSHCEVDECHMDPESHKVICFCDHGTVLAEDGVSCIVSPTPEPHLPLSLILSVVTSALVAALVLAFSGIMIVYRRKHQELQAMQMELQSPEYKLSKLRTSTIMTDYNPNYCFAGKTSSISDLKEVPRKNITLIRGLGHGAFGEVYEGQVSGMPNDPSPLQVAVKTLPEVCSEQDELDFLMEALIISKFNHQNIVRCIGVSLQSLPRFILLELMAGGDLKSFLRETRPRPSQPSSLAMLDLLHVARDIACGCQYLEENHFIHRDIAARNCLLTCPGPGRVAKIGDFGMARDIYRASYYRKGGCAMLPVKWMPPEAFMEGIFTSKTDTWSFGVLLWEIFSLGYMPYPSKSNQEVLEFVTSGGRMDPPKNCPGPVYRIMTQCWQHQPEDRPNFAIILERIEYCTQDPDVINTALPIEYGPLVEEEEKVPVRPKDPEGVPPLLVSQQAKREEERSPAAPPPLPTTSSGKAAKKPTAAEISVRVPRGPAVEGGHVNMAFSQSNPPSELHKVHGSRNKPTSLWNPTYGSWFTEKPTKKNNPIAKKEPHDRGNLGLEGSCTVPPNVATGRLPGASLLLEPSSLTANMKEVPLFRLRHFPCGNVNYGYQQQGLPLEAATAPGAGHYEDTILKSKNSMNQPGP
# T4 sequence (Q9UM73 whole entry, change not shown, the tested form may be a part): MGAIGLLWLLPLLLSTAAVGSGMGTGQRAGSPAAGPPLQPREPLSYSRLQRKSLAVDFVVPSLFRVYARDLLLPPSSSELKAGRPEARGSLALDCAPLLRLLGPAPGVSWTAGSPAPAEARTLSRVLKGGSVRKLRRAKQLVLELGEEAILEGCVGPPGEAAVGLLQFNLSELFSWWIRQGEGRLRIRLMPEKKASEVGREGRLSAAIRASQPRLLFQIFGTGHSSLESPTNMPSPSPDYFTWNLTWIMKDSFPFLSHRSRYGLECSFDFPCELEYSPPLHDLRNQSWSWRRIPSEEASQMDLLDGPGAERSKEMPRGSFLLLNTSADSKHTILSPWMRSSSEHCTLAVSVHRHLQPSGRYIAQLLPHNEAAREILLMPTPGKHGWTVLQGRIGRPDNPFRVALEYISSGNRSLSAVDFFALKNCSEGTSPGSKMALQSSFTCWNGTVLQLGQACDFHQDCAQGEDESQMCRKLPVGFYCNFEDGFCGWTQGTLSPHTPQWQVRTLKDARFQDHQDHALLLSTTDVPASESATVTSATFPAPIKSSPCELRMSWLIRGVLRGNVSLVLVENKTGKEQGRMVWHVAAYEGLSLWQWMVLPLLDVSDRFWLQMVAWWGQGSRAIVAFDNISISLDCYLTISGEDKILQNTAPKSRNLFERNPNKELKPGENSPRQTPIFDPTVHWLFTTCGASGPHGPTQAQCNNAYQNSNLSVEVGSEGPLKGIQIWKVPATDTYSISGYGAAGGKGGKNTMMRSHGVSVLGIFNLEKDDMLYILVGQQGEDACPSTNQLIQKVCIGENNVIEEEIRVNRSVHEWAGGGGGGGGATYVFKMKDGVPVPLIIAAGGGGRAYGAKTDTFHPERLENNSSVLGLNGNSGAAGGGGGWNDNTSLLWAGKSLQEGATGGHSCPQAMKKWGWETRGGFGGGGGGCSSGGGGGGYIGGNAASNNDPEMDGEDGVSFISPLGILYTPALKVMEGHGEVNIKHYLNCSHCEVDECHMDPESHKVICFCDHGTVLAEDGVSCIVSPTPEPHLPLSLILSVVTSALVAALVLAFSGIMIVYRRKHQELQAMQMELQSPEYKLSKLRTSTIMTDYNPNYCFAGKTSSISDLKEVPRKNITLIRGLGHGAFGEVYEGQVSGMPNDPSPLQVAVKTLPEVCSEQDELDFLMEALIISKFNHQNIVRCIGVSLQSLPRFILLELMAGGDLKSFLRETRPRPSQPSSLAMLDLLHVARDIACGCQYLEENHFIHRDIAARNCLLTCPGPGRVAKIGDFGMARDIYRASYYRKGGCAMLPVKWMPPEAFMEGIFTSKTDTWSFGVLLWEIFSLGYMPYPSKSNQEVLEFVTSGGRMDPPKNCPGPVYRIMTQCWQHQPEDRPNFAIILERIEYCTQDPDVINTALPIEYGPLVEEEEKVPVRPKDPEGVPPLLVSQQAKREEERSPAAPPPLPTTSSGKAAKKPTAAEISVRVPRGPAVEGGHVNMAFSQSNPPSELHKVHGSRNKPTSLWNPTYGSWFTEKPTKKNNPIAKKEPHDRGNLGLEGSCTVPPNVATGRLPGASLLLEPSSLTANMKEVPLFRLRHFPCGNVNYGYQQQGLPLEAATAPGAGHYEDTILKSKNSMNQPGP
# T3 sequence (P07949 29-1114): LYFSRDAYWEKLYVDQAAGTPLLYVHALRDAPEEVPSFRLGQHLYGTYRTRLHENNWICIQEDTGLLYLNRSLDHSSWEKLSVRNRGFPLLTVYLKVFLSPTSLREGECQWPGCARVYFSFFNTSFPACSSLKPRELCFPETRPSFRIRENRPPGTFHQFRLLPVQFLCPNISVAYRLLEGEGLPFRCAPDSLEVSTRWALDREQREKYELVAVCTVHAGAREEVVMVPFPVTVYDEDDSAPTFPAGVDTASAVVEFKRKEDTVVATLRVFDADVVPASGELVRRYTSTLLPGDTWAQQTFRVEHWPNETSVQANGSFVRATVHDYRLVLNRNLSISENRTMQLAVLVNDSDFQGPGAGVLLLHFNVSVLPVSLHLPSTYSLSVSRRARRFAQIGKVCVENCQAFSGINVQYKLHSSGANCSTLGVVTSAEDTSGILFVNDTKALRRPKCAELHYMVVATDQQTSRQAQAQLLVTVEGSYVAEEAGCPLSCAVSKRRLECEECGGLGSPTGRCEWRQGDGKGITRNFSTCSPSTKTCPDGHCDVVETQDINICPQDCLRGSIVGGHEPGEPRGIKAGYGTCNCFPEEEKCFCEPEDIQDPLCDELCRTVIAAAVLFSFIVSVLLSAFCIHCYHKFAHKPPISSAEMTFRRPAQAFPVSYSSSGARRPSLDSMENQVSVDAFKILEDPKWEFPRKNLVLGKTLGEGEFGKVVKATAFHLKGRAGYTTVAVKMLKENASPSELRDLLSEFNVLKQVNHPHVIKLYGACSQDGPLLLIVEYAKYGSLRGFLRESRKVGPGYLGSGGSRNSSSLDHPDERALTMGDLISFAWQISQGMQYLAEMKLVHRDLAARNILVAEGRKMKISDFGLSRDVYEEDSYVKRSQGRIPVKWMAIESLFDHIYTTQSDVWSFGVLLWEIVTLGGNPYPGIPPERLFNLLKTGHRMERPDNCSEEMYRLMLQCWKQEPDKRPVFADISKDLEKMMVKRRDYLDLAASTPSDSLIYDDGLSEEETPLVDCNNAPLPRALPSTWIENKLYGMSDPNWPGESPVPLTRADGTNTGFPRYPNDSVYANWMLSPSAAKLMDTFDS
structure (smiles),measurement,setting,value
"O=c1[nH]c(-c2ccc3[nH]c4ncccc4c3c2)cs1 [R221, 4-(9H-pyrido[2,3-b]indol-6-yl)thiazol-2(3H)-one]",IC50,Recombinant ALK kinase,19 ± 1.8 µM
same,IC50,[1],53 ± 16 µM
same,IC50,Recombinant Ret protein,82 ± 3.2 µM
O=Cc1ccc2[nH]c3ncc(Cl)cc3c2c1 [R267],IC50,[2],17 µM
same,IC50,[3],9.4 µM
same,IC50,[1],20 ± 0.67 µM
same,IC50,Recombinant Ret protein,34 ± 27 µM
"O=C(CSc1ccccn1)c1ccc2[nH]c3ncc(Cl)cc3c2c1 [R272, 1-(3-Chloro-9H-pyrido[2,3-b]indol-6-yl)-2-(pyridin-2-ylsulfanyl)ethanone]",IC50,[2],2 µM
same,GI50,[4],2.5 µM
same,IC50,[3],> 25 µM
same,IC50,[1],41 µM
same,IC50,Recombinant Ret protein,19 µM
"O=C(CSc1nc2ccccc2s1)c1ccc2[nH]c3ncc(Cl)cc3c2c1 [R273, 2-(Benzothiazol-2-ylsulfanyl)-1-(3-chloro-9H-pyrido[2,3-b]indol-6-yl)ethanone]",IC50,[2],14 µM
same,GI50,[4],19 µM
same,IC50,[3],> 25 µM
same,IC50,[1],4.4 µM
same,IC50,Recombinant Ret protein,2 µM
"O=C(CSc1nc2ccccc2[nH]1)c1ccc2[nH]c3ncc(Cl)cc3c2c1 [R274, 2-(1H-Benzoimidazol-2-ylsulfanyl)-1-(3-chloro-9H-pyrido[2,3-b]indol-6-yl)ethanone]",IC50,[2],0.9 µM
same,GI50,[4],1 µM
same,IC50,[3],0.6 µM
same,IC50,[1],19 µM
same,IC50,Recombinant Ret protein,14 µM
Oc1cnc2[nH]c3ccc(CCc4ccccc4)cc3c2c1 [R276],IC50,[2],> 25 µM
same,GI50,[4],> 25 µM
same,IC50,Recombinant ALK kinase,0.5 ± 0.1 µM
same,IC50,Recombinant Ret protein,1 µM
"O=C(CSc1cccc(Br)c1)c1ccc2[nH]c3ncc(Cl)cc3c2c1 [R279, 2-(3-Bromophenylsulfanyl)-1-(3-chloro-9H-pyrido[2,3-b]indol-6-yl)ethanone]",IC50,[2],> 50 µM
same,GI50,[4],> 50 µM
same,IC50,[1],> 100 µM
same,IC50,Recombinant Ret protein,3.6 µM
"O=C(CSCCOc1ccccc1)c1ccc2[nH]c3ncc(Cl)cc3c2c1 [R280, 1-(3-Chloro-9H-pyrido[2,3-b]indol-6-yl)-2-(2-phenoxyethylsulfanyl)ethanone]",IC50,[2],37 µM
same,GI50,[4],> 50 µM
same,IC50,[1],33 µM
same,IC50,Recombinant Ret protein,3.6 µM
"O=C(CSC1=NCCS1)c1ccc2[nH]c3ncc(Cl)cc3c2c1 [R282, 1-(3-chloro-9H-pyrido[2,3-b]indol-6-yl)-2-(4,5-dihydrothiazol-2-ylsulfanyl)éthanone]",IC50,[2],32 µM
same,GI50,[4],14 µM
same,IC50,[3],0.7 µM
same,IC50,[1],36 µM
same,IC50,Recombinant Ret protein,9.5 µM
"CCN(CC)CCSCC(=O)c1ccc2[nH]c3ncc(Cl)cc3c2c1 [R283, 1-(3-Chloro-9H-pyrido[2,3-b]indol-6-yl)-2-(N,N-diethylaminoethylsulfanyl)ethanone]",IC50,[2],3.6 ± 1.8 µM
same,GI50,[4],0.5 ± 0.2 µM
same,IC50,[3],0.2 ± 0.02 µM
same,IC50,[1],48 µM
same,IC50,Recombinant Ret protein,5.7 µM
"CN(C)CCSCC(=O)c1ccc2[nH]c3ncc(Cl)cc3c2c1 [R284, 1-(3-Chloro-9H-pyrido[2,3-b]indol-6-yl)-2-(2,2-dimethylaminoethylsulfanyl)ethanone]",IC50,Recombinant ALK kinase,36 ± 14 µM
same,IC50,[1],> 100 µM
same,IC50,Recombinant Ret protein,41 µM
"C(=C\c1ccc2c(n1)[nH]c1ccccc12)/c1ccccc1 [R300, 2-(2′-phenylethenyl)-9H-pyrido[2,3-b]indole]",IC50,[2],> 100 µM
same,GI50,[4],80 µM
same,IC50,[3],> 100 µM
same,IC50,[1],> 100 µM
same,IC50,Recombinant Ret protein,4.8 µM
"C(=C\c1cnc2[nH]c3ccc(-c4ccc(N5CCOCC5)cn4)cc3c2c1)/c1ccccc1 [R307, 6-(5-morpholin-4-yl-pyridin-2-yl)-3-(2′-phenylethenyl)-9H-pyrido[2,3-b]indole]",IC50,[2],> 100 µM
same,GI50,[4],40 µM
same,IC50,Recombinant ALK kinase,0.5 ± 0.1 µM
same,IC50,[1],3.1 ± 0.1 µM
same,IC50,Recombinant Ret protein,> 100 µM
"COc1ccc(-c2ccnc3[nH]c4ccccc4c23)cc1 [R309, 4-(4-methoxyphenyl)-9H-pyrido[2,3-b]indole]",IC50,[2],15 µM
same,GI50,[4],25 µM
same,IC50,Recombinant ALK kinase,4 ± 0.2 µM
same,melting point,,208 to 210 °C
same,IC50,[1],1.6 µM
"c1coc(-c2ccc3c(n2)[nH]c2ccccc23)c1 [R326, 2-(furan-2-yl)-9H-pyrido[2,3-b]indole]",IC50,[2],8.8 µM
same,GI50,[4],19 µM
same,melting point,,208 to 210 °C
"c1coc(-c2ccnc3[nH]c4ccccc4c23)c1 [R327, 4-(furan-2-yl)-9H-pyrido[2,3-b]indole]",IC50,[2],> 100 µM
same,GI50,[4],26 µM
same,melting point,,> 220 °C
"O=[N+]([O-])c1cccc(-c2ccnc3[nH]c4ccccc4c23)c1 [R331, 4-(3-nitrophenyl)-9H-pyrido[2,3-b]indole]",IC50,[2],> 100 µM
same,GI50,[4],40 µM
same,IC50,Recombinant ALK kinase,> 100 µM
same,melting point,,> 220 °C
